Calls of active or inactive are those of the source. No cut-off for these calls is given here.
Tests used:
[1] = tested on: SUP-B15; assay: Induction of apoptosis in human SUP-B15 cells assessed as late apoptotic cells level at 2 uM after 24 hrs by Annexin V and propidium iodide staining based flow cytometry (reference value: 83%); format: functional
[2] = tested on: KOPN-8; assay: Induction of apoptosis in human KOPN8 cells assessed as late apoptotic cells level at 2 uM after 24 hrs by Annexin V and propidium iodide staining based flow cytometry (reference value: 2%); format: functional
[3] = tested on: SUP-B15; assay: Induction of apoptosis in human SUP-B15 cells assessed as late apoptotic cells level at 2 uM after 24 hrs by Annexin V and propidium iodide staining based flow cytometry (reference value: 13.5%); format: functional
[4] = tested on: KOPN-8; assay: Induction of apoptosis in human KOPN8 cells assessed as late apoptotic cells level at 2 uM after 24 hrs by Annexin V and propidium iodide staining based flow cytometry (reference value: 96.4%); format: functional
[5] = Permeability of compound at pH 7.4 by PAMPA; format: ADME; details: read-out: Peff
[6] = tested on: SUP-B15; assay: Induction of apoptosis in human SUP-B15 cells assessed as decrease in cell viability at 5 uM after 24 hrs by Annexin V/propidium iodide staining-based flow cytometric analysis; format: functional
[7] = tested on: MDA-MB-231; assay: Cytotoxicity against human MDA-MB-231 cells at 30 uM after 24 hrs by propidium iodide staining-based fluorescence assay; format: functional, cell-based
[8] = Protein binding in human plasma; format: ADME, cell-free; details: read-out: PPB (converted)
[9] = tested on: KOPN-8; assay: Induction of apoptosis in human KOPN8 cells assessed as decrease in cell viability at 5 uM after 24 hrs by Annexin V/propidium iodide staining-based flow cytometric analysis; format: functional
[10] = tested on: SUP-B15; assay: Induction of apoptosis in human SUP-B15 cells assessed as late apoptotic cells level after 24 hrs by Annexin V and propidium iodide staining based flow cytometry (reference value: 83%); format: functional
[11] = Half life in mouse plasma; format: ADME, cell-free
[12] = Permeability of compound at pH 7.4 assessed as drug retention by PAMPA; format: ADME
[13] = tested on: SUP-B15; assay: Antiproliferative activity against human SUP-B15 assessed as reduction in cell viability after 72 hrs by CellTiter-Glo assay; format: functional, cell-based; details: SUP-B15, 72 h
[14] = tested on: UoC-B1; assay: Antiproliferative activity against human UOCB1 assessed as reduction in cell viability after 72 hrs by CellTiter-Glo assay; format: functional, cell-based; details: UoC-B1, 72 h
[15] = Intrinsic clearance in human microsomes; format: ADME, Microsome
[16] = Apparent permeability of compound form basolateral to apical side in human Caco2 cells; format: ADME, cell-based; details: Caco-2
[17] = Protein binding in mouse plasma; format: ADME, cell-free; details: read-out: PPB (converted)
[18] = tested on: SUP-B15; assay: Cytotoxicity in human SUP-B15 cells assessed as decrease in cell viability after 24 hrs by bis-AAF-RF110 dye based assay; format: functional
[19] = tested on: B-ALL; assay: Antiproliferative activity against mouse B-ALL BCR-ABL double knockout cells assessed as reduction in cell viability after 72 hrs by CellTiter-Glo assay; format: functional, cell-based
[20] = tested on: BJ; assay: Antiproliferative activity against human BJ assessed as cell viability after 72 hrs by CellTiter-Glo assay; format: functional, cell-based
[21] = Half life in simulated gastric fluid; format: ADME
[22] = tested on: KOPN-8; assay: Cell cycle arrest in human KOPN8 cells assessed as accumulation of cells at G1/G0 phase at 5 uM after 24 hrs by propidium iodide staining-based flow cytometric analysis relative to control; format: functional
[23] = Apparent permeability of compound form apical to basolateral side in human Caco2 cells; format: ADME, cell-based; details: Caco-2
[24] = tested on: SUP-B15; assay: Induction of apoptosis in human SUP-B15 cells assessed as late apoptotic cells level after 24 hrs by Annexin V and propidium iodide staining based flow cytometry (reference value: 13.5%); format: functional
[25] = Intrinsic clearance in mouse microsomes; format: ADME, Microsome
[26] = tested on: B-ALL; assay: Antiproliferative activity against mouse B-ALL cells expressing wild type BCR-ABL assessed as reduction in cell viability after 72 hrs by CellTiter-Glo assay; format: functional, cell-based
[27] = Efflux ratio of apparent permeability across basolateral to apical side over apical to basolateral side in human Caco2 cells; format: ADME, cell-based; details: Caco-2
[28] = tested on: SUM149PT; assay: Cytotoxicity against human SUM149 cells at 100 uM after 24 hrs by propidium iodide staining-based fluorescence assay relative to control; format: functional
[29] = tested on: KOPN-8; assay: Antiproliferative activity against human KOPN8 assessed as reduction in cell viability after 72 hrs by CellTiter-Glo assay; format: functional, cell-based; details: KOPN-8, 72 h
[30] = tested on: KOPN-8; assay: Cell cycle arrest in human KOPN8 cells assessed as accumulation of cells at G2/M phase at 5 uM after 24 hrs by propidium iodide staining-based flow cytometric analysis relative to control; format: functional
[31] = tested on: KOPN-8; assay: Cell cycle arrest in human KOPN8 cells assessed as increase in accumulation of cells at S phase at 5 uM after 24 hrs by propidium iodide staining-based flow cytometric analysis; format: functional
[32] = Therapeutic index, ratio of EC50 for human BJ cells to EC50 for mouse B-ALL cells expressing wild type BCR-ABL; format: toxicity; details: human BJ cells versus mouse B-ALL cells expressing wild type BCR-ABL; read-out: Ratio EC50
[33] = Half life in human microsomes; format: ADME, Microsome
[34] = tested on: SUP-B15; assay: Cell cycle arrest in human SUP-B15 cells assessed as accumulation of cells at G1/G0 phase at 5 uM after 24 hrs by propidium iodide staining-based flow cytometric analysis; format: functional
[35] = Half life in human plasma; format: ADME, cell-free
[36] = tested on: KOPN-8; assay: Induction of apoptosis in human KOPN8 cells assessed as late apoptotic cells level after 24 hrs by Annexin V and propidium iodide staining based flow cytometry (reference value: 2%); format: functional
[37] = tested on: MV4-11; assay: Antiproliferative activity against human MV411 assessed as reduction in cell viability after 72 hrs by CellTiter-Glo assay; format: functional, cell-based; details: MV4-11, 72 h
[38] = tested on: MDA-MB-231; assay: Cytotoxicity against human MDA-MB-231 cells up to 30 uM after 24 hrs by propidium iodide staining-based fluorescence assay; format: functional, cell-based
[39] = tested on: KOPN-8; assay: Induction of apoptosis in human KOPN8 cells assessed as late apoptotic cells level after 24 hrs by Annexin V and propidium iodide staining based flow cytometry (reference value: 96.4%); format: functional
[40] = tested on: NALM-6; assay: Antiproliferative activity against human NALM6 assessed as reduction in cell viability after 72 hrs by CellTiter-Glo assay; format: functional, cell-based; details: NALM-6, 72 h
[41] = Half life in mouse microsomes; format: ADME, Microsome
[42] = tested on: SUP-B15; assay: Induction of apoptosis in human SUP-B15 cells assessed as increase in caspase 3/7 activity after 24 hrs by caspase-Glo 3/7 reagent based luminescence assay; format: functional, cell-based
[43] = tested on: SUP-B15; assay: Cell cycle arrest in human SUP-B15 cells assessed as accumulation of cells at G2/M phase at 5 uM after 24 hrs by propidium iodide staining-based flow cytometric analysis; format: functional
[44] = tested on: K562; assay: Antiproliferative activity against human K562 assessed as reduction in cell viability after 72 hrs by CellTiter-Glo assay; format: functional, cell-based; details: K562, 72 h
[45] = tested on: B-ALL; assay: Induction of apoptosis in mouse B-ALL BCR-ABL double knockout cells assessed as increase in caspase 3/7 activity after 24 hrs by caspase-Glo 3/7 reagent based luminescence assay; format: functional, cell-based
[46] = tested on: SUP-B15; assay: Induction of apoptosis in human SUP-B15 cells assessed as decrease in cell viability at […] after 24 hrs by ApoTox-Glo triplex assay; format: functional, cell-based

Work on `CN[C@@H]1C[C@H]2O[C@@](C)([C@@H]1OC)n1c3ccccc3c3c4c(c5c6ccccc6n2c5c31)C(=O)NC4` [STAUROSPORINE] yielded an Activity [1] of 10%, an Activity [2] of 45.2% and an Activity [3] of 52.3%. It also gave an Activity [4] of 53.2%.
With `Cc1ccc(S(=O)(=O)Cc2nc(-c3ccc(C(=O)NCc4cccnc4)cc3)oc2C)cc1` the Papp [5] was 617 ×10⁻⁶ cm/s, the Activity [6] was “Active” and the Activity [7] was “Active”. The fraction unbound [8] was 0.042, the Activity [9] was “Active” and the Activity [10] was 69.9%. For the same compound, the half-life [11] was > 48 h, the permeability [12] was 24.8% and the EC50 [13] was 1100 nM. For the same compound, the EC50 [14] was > 55000 nM, the CLint scaled [15] was 14.5 mL/min/kg and the Papp B→A [16] was 37.2 ×10⁻⁶ cm/s. For the same compound, the fraction unbound [17] was 0.023, the Activity [18] was “Active” and the EC50 [19] was 61 nM. The EC50 [20] was 2490 nM, the half-life [21] was > 48 h and the Activity [22] was 10%. For the same compound, the Papp A→B [23] was 10.6 ×10⁻⁶ cm/s, the Activity [24] was 7.6% and the CLint scaled [25] was 47.5 mL/min/kg. It also gave an EC50 [26] of 72 nM, an efflux ratio [27] of 3.5 and an Activity [28] of 50%. For the same compound, the EC50 [29] was 1230 nM, the Activity [30] was 12% and the Activity [31] was “Active”. The selectivity ratio [32] was 34, the half-life [33] was 1.44 h and the Activity [34] was “inactive”. For the same compound, the half-life [35] was > 48 h, the Activity [36] was 2.9% and the EC50 [37] was 3800 nM. The Activity [38] was “inactive”, the Activity [39] was 95.8% and the EC50 [40] was 26 nM. The half-life [41] was 1.2 h, the Activity [42] was “Active” and the Activity [43] was “inactive”. For the same compound, the EC50 [44] was 4600 nM, the Activity [45] was “inactive” and the Activity [46] was “Active”.

— ChEMBL document CHEMBL4422630, “Identification of substituted 5-membered heterocyclic compounds as potential anti-leukemic agents” (Eur J Med Chem, 2019)
